This is an account of results in patent publication US20250084096A1, “TERT-BUTYL (S)-2-(4-(PHENYL)-6H-THIENO[3, 2-F][1, 2, 4]TRIAZOLO[4, 3-A] [1,4]DIAZEPIN-6-YL) ACETATE DERIVATIVES AND RELATED COMPOUNDS AS BROMODOMAIN BRD4 INHIBITORS FOR TREATING CANCER” (Genentech, Inc., priority 2018, published 2025).

The structures appear in SMILES notation.

One assay concerns MYC expression. Kind of assay: Myc mRNA assay in MV-4-11 cells. The conditions noted are these: for Maximum Inhibition (%) (mean) of MYC expression: 4 hours, QuantiGene 2.0; for IC50: Homo sapiens, MV4-11, 4 hours, QuantiGene 2.0, read-out: Inhibition of MYC expression Average IC50. The assay is classed as cell-based. As to the method:
Pharmacologic inhibition of MYC is achievable through targeting BET bromodomains through small molecule binder or degrader mechanisms.
Test compounds diluted in DMSO were transferred to the cell plates, keeping final DMSO concentration consistent at 0.1%, and incubated for 4 hours at 37° C. […] Luminescence was read using an EnVision plate reader (PerkinElmer) and IC50s generated in Genedata Screener using a 4-parameter non-linear regression fit.

For assay [1], the target named is T1, BRD4 (Homo sapiens (Human), UniProt O60885). Kind of assay: BRD4 degradation assay in PC3-Steap1 cells. The assay is classed as cell-based. Particulars: 4 hours; for DC50: immunofluorescence, read-out: Degradation of BRD4 Average EC50; for Dmax: complete loss = −100%, read-out: Sinf (maximum degradation, percent change in protein level). As to the method:
2 μL of each sample from the serial dilution was transferred to 98 μL of assay media as an intermediate dilution. 5 μL of intermediate dilution was added to 45 μL of cell plate. Columns 1, 2, 23 and 24 were treated with only 0.2% w/v final concentration of DMSO for data normalization as “neutral controls”. After compound treatment, cell plates were stored in a 37° C. incubator for 4 hours.
Cell plate was incubated at room temperature for 20 minutes. Well contents were aspirated and washed with 100 μL/well PBS 3 times. 50 μL/well of PBS containing 0.5% w/v bovine serum albumen, 0.5% w/v Triton X-100 (Antibody Dilution Buffer) was added to each well. Samples were incubated for 30 minutes. Well contents were aspirated and washed 3 times with 100 μL/well of PBS. PBS was aspirated from the wells.
25 μL per well of BRD4 antibody diluted in buffer was added and incubated overnight at 4° C. On day-3 samples were washed 3 times with 100 μL/well of PBS. […] Samples were incubated for 2 hours at room temperature. Samples were washed 3 times with 100 μL PBS.
(§1) Quantitative fluorescence imaging of BRD4 was carried out using an Opera Phenix High-Content Screening System. […] Hoechst channel was used to identify nuclear region. […] Data analysis was carried out using Genedata Screener, with DMSO and no primary antibody control treated samples being used to define the 0% and 100% changes in BRD4. The dose-response log(inhibitor) vs. response was used to define the inflexion point of curve (IC50) and the plateau of the maximal effect. The Sit value reports degradation as percent change in protein level, so complete loss of the protein target is −100%. Sinf is the maximum degradation achieved, obtained by determining the bottom of a dose-response (where the S-shaped curve levels out).

Another assay has as its target BRD4_BD1 bromodomain (Homo sapiens (Human), UniProt O60885). Kind of assay: BRD4 BD1 biochemical binding assay (TR-FRET). The conditions noted are these: displacement of biotinylated ligand Compound C. As to the method:
(§2) The following assay was used to measure the IC50 for the test compounds ability to bind to the BRD4_BD1 and BRD4_BD2 bromodomains.
(§3) DMSO was backfilled to a final volume of 30 nL as required. […] 1× Assay Buffer was dispensed (5 μL per well) into Minimum Signal control wells. 5 μL of Solution A-3× was dispensed into test wells and Maximum Signal control wells (containing DMSO instead of test compound). Samples were incubated 10 minutes at room temperature. 5 μL of Solution B-3x was dispensed into all wells. Samples were incubated incubate for 10 minutes at room temperature. 5 μL of Solution C-3x was dispensed into all wells. Samples were incubated 40 minutes at room temperature. Plates were read using an Envision (Perkin Elmer) with the following settings: Detection—LANCE Dual Laser 50/200. […] Percentage inhibition was calculated relative to the Minimum Signal control and Maximum Signal control wells. IC50 values were derived by four parameter curve fitting using the Robust method.
A general note: TR-FRET usually uses a lanthanide donor and a delayed reading to cut background.

The target of a further assay is BRD4_BD2 bromodomain (Homo sapiens (Human), UniProt O60885). Nature of the assay: BRD4 BD2 biochemical binding assay (TR-FRET). The conditions noted are these: displacement of biotinylated ligand Compound C. As to the method: as §2, §3
The target in assay [2] is T1, BRD4. Kind of assay: BRD4 degradation assay in EoL-1 cells. The conditions noted are these: for Dmax: EOL1, 4 hours, complete loss = −100%, read-out: Sinf (maximum degradation, percent change in protein level); for DC50: 4 hours, immunofluorescence, read-out: Degradation of BRD4 Average EC50. The assay is classed as cell-based. As to the method: 2 μL of each sample from the serial dilution was transferred to 98 μL of assay media as an intermediate dilution. 5 μL of each well of the intermediate dilution was added to 45 μL of cell plate. Columns 1, 2, 23 and 24 were treated with only 0.2% final concentration of DMSO for data normalization as “neutral controls”. After compound treatment, cell plates were stored in a 37° C. incubator for 4 hours.
The cell plate was incubated at room temperature for 20 minutes. Well contents were aspirated and washed with 100 μL/well PBS 3 times. 50 μL/well of PBS (pH7.5) containing 0.5% w/v bovine serum albumen, 0.5% w/v Triton X-100 (Block/Permeabilzation Buffer) was added to each well. Samples were incubated for 20 minutes. Well contents were aspirated and washed 3 times with 100 μL/well of PBS. PBS was aspirated from the well and 50 μL per well of EoL-1 Block Buffer (PBS containing 10% Normal Goat Serum (Abcam #ab7481)) was added to each well. Plates were incubated at room temperature for 30 minutes. Block buffer was decanted from the wells.
25 μL per well of BRD4 antibody diluted in buffer was added and incubated overnight at 4° C. On day-2 samples were washed 3 times with 100 μL/well of PBS. […] Samples were incubated for 2 hours at room temperature. Samples were washed 3 times with 100 μL PBS.
as §1, with “Sinf” for “Sit”

What is called IC50 is the concentration at which inhibition is half-maximal. `Cc1sc2c(c1C)C(c1ccc(C#CC(C)(C)N)cc1)=N[C@@H](CC(=O)OC(C)(C)C)c1nnc(C)n1-2` [Compound 12a, tert-butyl (S)-2-(4-(4-(3-amino-3-methylbut-1-yn-1-yl)phenyl)-2,3,9-trimethyl-6H-thieno[3,2-f][1,2,4]triazolo[4,3-a][1,4]diazepin-6-yl)acetate]: in the assay on MYC expression, the “Maximum Inhibition (%) (mean) of MYC expression” value (shortened to “Maximum Inhibition (%) (mean)”) is 73.3% and the IC50 came to 12.6 nM.

For `Cc1sc2c(c1C)C(c1ccc(C#CCO)cc1)=N[C@@H](CC(=O)OC(C)(C)C)c1nnc(C)n1-2` [Compound 7a, tert-butyl (S)-2-(4-(4-(3-hydroxyprop-1-yn-1-yl)phenyl)-2,3,9-trimethyl-6H-thieno[3,2-f][1,2,4]triazolo[4,3-a][1,4]diazepin-6-yl)acetate], the “Maximum Inhibition (%) (mean)” value with MYC expression is given as 72.9%. Besides, the values for the half-inhibitory concentration (IC50) in the assay with MYC expression, at BRD4_BD1 bromodomain and at BRD4_BD2 bromodomain were 25.7 nM, 17.8 nM and 10.3 nM, respectively. Also, the DC50 at BRD4 [1] is more than 20 µM.

On to `Cc1sc2c(c1C)C(c1ccc(CCCN)cc1)=N[C@@H](CC(=O)OC(C)(C)C)c1nnc(C)n1-2` [Compound 9a, tert-butyl (S)-2-(4-(4-(3-aminopropyl)phenyl)-2,3,9-trimethyl-6H-thieno[3,2-f][1,2,4]triazolo[4,3-a][1,4]diazepin-6-yl)acetate], for which, in the assay on MYC expression, the “Maximum Inhibition (%) (mean)” value was determined as 78.1% and the IC50 was 27.7 nM. In addition, at BRD4 [1], the Dmax is -57.6%.

With `Cc1sc2c(c1C)C(c1ccc(C#CCNO)cc1)=N[C@@H](CC(=O)OC(C)(C)C)c1nnc(C)n1-2` [Compound 8a, tert-butyl (S)-2-(4-(4-(3-(hydroxyamino)prop-1-yn-1-yl)phenyl)-2,3,9-trimethyl-6H-thieno[3,2-f][1,2,4]triazolo[4,3-a][1,4]diazepin-6-yl)acetate], the “Maximum Inhibition (%) (mean)” value in the assay with MYC expression worked out at 95.1%. The concentration for half-maximal inhibition (IC50) in the assay on MYC expression is 7.2 nM. For the same compound, the Dmax was -92.6% on BRD4 [1] and -92.2% at BRD4 [2].

On to `CNCC#Cc1ccc(C2=N[C@@H](CC(=O)OC(C)(C)C)c3nnc(C)n3-c3sc(C)c(C)c32)cc1` [Compound 2a, tert-butyl (S)-2-(2,3,9-trimethyl-4-(4-(3-(methylamino)prop-1-yn-1-yl)phenyl)-6H-thieno[3,2-f][1,2,4]triazolo[4,3-a][1,4]diazepin-6-yl)acetate], for which, in the assay on MYC expression, the “Maximum Inhibition (%) (mean)” value is 77.9%. Besides, the IC50 came to 11.1 nM in the assay on MYC expression, 14.4 nM at BRD4_BD1 bromodomain and 17.1 nM on BRD4_BD2 bromodomain. Also, the Dmax on BRD4 [1] is -21.8%. For the same compound, the DC50 on BRD4 [1] and on BRD4 [2] was more than 20 µM throughout.

Regarding `Cc1sc2c(c1C)C(c1ccc(/C=C/CN)cc1)=N[C@@H](CC(=O)OC(C)(C)C)c1nnc(C)n1-2` [Compound 6a, tert-butyl (S,E)-2-(4-(4-(3-aminoprop-1-en-1-yl)phenyl)-2,3,9-trimethyl-6H-thieno[3,2-f][1,2,4]triazolo[4,3-a][1,4]diazepin-6-yl)acetate], in the assay with MYC expression, the “Maximum Inhibition (%) (mean)” value was 88.4% and the IC50 amounted to 2 nM. For the same compound, the Dmax on BRD4 [1] was -73.1%. The Dmax at BRD4 [2] was -77.9%.

Take `COC(=O)c1cc2c(cc1CS(C)(=O)=O)-c1cn(C)c(=O)c3[nH]cc(c13)CN2c1ncc(C#CCN)cc1F` [Compound 15, methyl 4-(5-(3-aminoprop-1-yn-1-yl)-3-fluoropyridin-2-yl)-10-methyl-7-((methylsulfonyl)methyl)-11-oxo-3,4,10,11-tetrahydro-1H-1,4,10-triazadibenzo[cd,f]azulene-6-carboxylate]: in the assay with MYC expression, the “Maximum Inhibition (%) (mean)” value amounted to 75.7% and the 50% inhibitory concentration (IC50) worked out at 7.2 nM. The DC50 at BRD4 [1] is more than 20 µM. The DC50 at BRD4 [2] was more than 20 µM.

`Cc1sc2c(c1C)C(c1ccc(Cl)cc1)=N[C@@H](CC(=O)OC(C)(C)C)c1nnc(C)n1-2` [Compound A, tert-butyl (S)-2-(4-(4-chlorophenyl)-2,3,9-trimethyl-6H-thieno[3,2-f][1,2,4]triazolo[4,3-a][1,4]diazepin-6-yl)acetate, reference compound]: in the assay on MYC expression, the “Maximum Inhibition (%) (mean)” value worked out at 76.3% and the concentration for half-maximal inhibition (IC50) amounted to 83.4 nM.

As for `Cc1sc2c(c1C)C(c1ccc(C#CCNC(=N)N)cc1)=N[C@@H](CC(=O)OC(C)(C)C)c1nnc(C)n1-2` [Compound 5a, tert-butyl (S)-2-(4-(4-(3-guanidinoprop-1-yn-1-yl)phenyl)-2,3,9-trimethyl-6H-thieno[3,2-f][1,2,4]triazolo[4,3-a][1,4]diazepin-6-yl)acetate], in the assay on MYC expression, the “Maximum Inhibition (%) (mean)” value was found to be 87.6% and the half-inhibitory concentration (IC50) amounted to 124 nM. For the same compound, on BRD4 [1], the Dmax was -86% and the DC50 is 0.101 µM. Further, the IC50 on BRD4_BD1 bromodomain turned out to be 7.2 nM. On BRD4_BD2 bromodomain, this compound had an IC50 of 8.5 nM.

Take `Cc1sc2c(c1C)C(c1ccc(C#CC(C)N)cc1)=N[C@@H](CC(=O)OC(C)(C)C)c1nnc(C)n1-2` (stereo partly drawn) [Compound 11a, tert-butyl 2-((6S)-4-(4-(3-aminobut-1-yn-1-yl)phenyl)-2,3,9-trimethyl-6H-thieno[3,2-f][1,2,4]triazolo[4,3-a][1,4]diazepin-6-yl)acetate]: the “Maximum Inhibition (%) (mean)” value in the assay with MYC expression came to 72.5%. The concentration for half-maximal inhibition (IC50) in the assay with MYC expression was determined as 20.7 nM; at BRD4_BD1 bromodomain, 14.1 nM; on BRD4_BD2 bromodomain it was 10.6 nM. In addition, the Dmax at BRD4 [1] is -43.3%. Besides, on BRD4 [1], the DC50 was more than 20 µM.

For the compound `Cc1sc2c(c1C)C(c1ccc(C#CCCN)cc1)=N[C@@H](CC(=O)OC(C)(C)C)c1nnc(C)n1-2` [Compound 4a, tert-butyl (S)-2-(4-(4-(4-aminobut-1-yn-1-yl)phenyl)-2,3,9-trimethyl-6H-thieno[3,2-f][1,2,4]triazolo[4,3-a][1,4]diazepin-6-yl)acetate], the “Maximum Inhibition (%) (mean)” value in the assay with MYC expression was determined as 79.4%. Further, the IC50 in the assay on MYC expression came out at 19.8 nM; at BRD4_BD1 bromodomain, 13 nM; at BRD4_BD2 bromodomain, 17.7 nM. Besides, the Dmax on BRD4 [1] was -54.7%. For the same compound, the DC50 at BRD4 [1] is 0.0034 µM.
